Measurements as given in US6716829B2, “Aldosterone antagonist and cyclooxygenase-2 inhibitor combination therapy to prevent or treat inflammation-related cardiovascular disorders” (Pharmacia Corporation, priority 2000, dated 2004).
Several values for one entry are separate records, joined by “and”; a condition that tells them apart may be missing. Equal values may be shown once.

Experiments:
[1] = tested on: cyclooxgenase-2; assay: Assay A: immunostaining of hearts with cyclooxygenase-2 specific antibody; type: in vivo, Male Wistar rats; conditions: angiotensin II infused rats, eplerenone 100 mpk, aldosterone replacement in adrenalectomized rats
Description: Cycloxygenase-2 staining was also observed in the vascular smooth muscle cells of the media of coronary arteries, even when there was no evidence of morphologic alterations or inflammatory aggregates in the perivascular space (FIG. 26).

[2] = tested on: interstitial collagen; assay: Assay C: image analysis of interstitial collagen (Picrosirius Red), collagen volume fraction; type: in vivo, Male Sprague-Dawley rats; conditions: for ICVF (%): interstitial collagen volume fraction, eplerenone dose 100 mg/kg/day
Method: The procedure of Assay B was expanded upon in a further study. […] Myocardial tissue from animals in each treatment group was examined after 7, 14, or 30 days of treatment. […] Lesions were preceded by the expression and progressive upregulation of proinflammatory molecules. […] Prior to surgery the animals were individually weighed and placed in one of the following groups: […] Potassium chloride supplementation was added to the saline solution in order to prevent the potential hypokalemia associated with aldosterone excess. […] Louis, Mo.) was inserted subcutaneously at the nape of the neck. Aldosterone was administered at a dose of 0.75 µg/hour. […] Animals were sacrificed from each group (n=8-13) after 7, 14, or 30 days of treatment. The equatorial regions of the heart were routinely processed into paraffin with an automated tissue processor (Hypercenter XP, Shandon/Lipshaw Inc., Pittsburgh, Pa.) and embedded into fresh paraffin apical side down (Shandon Embedding Center, Shandon/Lipshaw Inc.). Five and 10 µm sections were cut from each block of tissue using a Leica RM2035 rotary microtome (Leica Inc., Houston, Tex.) and mounted on Superfrost/Plus microscope slides (Fisher Scientific, Pittsburgh, Pa.). Ten […]m sections were stained with the collagen specific stain, Picrosirius Red F3BA (Saturated Picric Acid (Sigma Chemical, St. […] Waterbury, Conn.) (6). Mounted tissues were hydrated with water. […] Slides were coverslipped with #1 cover glass using Permount Histological Mounting Media (Fisher Scientific). Two slides mounted with 5 µm sections were cut for each animal. One slide was processed for H&E staining and one for Periodic Acid Schiff (PAS) staining. The H&E and PAS were used for pathological scoring of the hearts. Picrosirius Red F3BA stained slides were used to quantify interstitial collagen with a Videometric 150 Image Analysis System (Oncor Inc., Gaitherburg, Md.). […] Garden City, N.Y.) attached to a Nikon Optiphot microscope (Nikon Inc.). A Toshiba 3 CCD Color Video Camera (Model#[…] Corp. Japan) relayed the images in RGB format from the microscope to a 386 computer with a […] video board. The […] video board/[…] software application (Oncor Inc.) converted RGB images to HIS (Hue, Intensity, Saturation) format for display and analysis on a Sony Trinitron Color Video Monitor (Model#PVM-1342Q, Sony Corp, Tokyo, Japan) at a magnification of 305×. […] The […] application then measured only pixels which fell into thresholding limits. The system was calibrated with a micrometer scale (EM Sciences, FT. Washington, Pa. 19034), which allowed data to be expressed in mm^2 or […]m^2.

[3] = tested on: hydroxyproline; assay: Assay C: myocardial hydroxyproline assay; type: in vivo, Male Sprague-Dawley rats
Method: The procedure of Assay B was expanded upon in a further study. […] Myocardial tissue from animals in each treatment group was examined after 7, 14, or 30 days of treatment. […] Lesions were preceded by the expression and progressive upregulation of proinflammatory molecules. […] Prior to surgery the animals were individually weighed and placed in one of the following groups: […] Potassium chloride supplementation was added to the saline solution in order to prevent the potential hypokalemia associated with aldosterone excess. […] Louis, Mo.) was inserted subcutaneously at the nape of the neck. Aldosterone was administered at a dose of 0.75 µg/hour. […] Animals were sacrificed from each group (n=8-13) after 7, 14, or 30 days of treatment. Following exsanguination, hearts and kidneys were isolated, removed, rinsed in cold phosphate-buffered saline, and blotted dry. […] Myocardial hydroxyproline concentration was measured by a […] assay that quantifies the reaction between oxidized hydroxyproline, and p-dimethylaminobenzaldehyde as described previously (4). […] Dried tissues and a positive collagen control (Bovine Collagen Type I, Sigma, St. […] T. Baker, Phillipsburg, N.J.) for 5 min at 25° C. […] Samples were incubated at 60° C. for 30 min, cooled to room temperature, and absorbance was monitored at 558 nm. Hydroxyproline content was quantitated from a freshly prepared standard curve of trans-4-hydroxy-L-proline (Sigma, St. Louis, Mo.). All samples and standards were performed in duplicate.

[4] = group mean, data used for Table 15 (14 days of treatment)
[5] = group mean, data used for Table 16 (30 days of treatment)
[6] = individual rats, data used for Table 15 (14 days of treatment), incl. rat marked * excluded from statistics, listed as Aldosterone + salt
[7] = individual rats, data used for Table 16 (30 days of treatment), incl. rat marked * excluded from statistics, listed as Aldosterone + salt
[8] = mean ± SEM after 7 days of treatment
[9] = mean ± SEM after 14 days of treatment
[10] = mean ± SEM after 30 days of treatment
[11] = mean after 7 days of treatment, eplerenone dose 100 mg/kg/day
[12] = mean after 14 days of treatment, eplerenone dose 100 mg/kg/day
[13] = mean after 30 days of treatment, eplerenone dose 100 mg/kg/day
[14] = individual rats, data used for Table 15 (14 days of treatment), incl. rat marked * excluded from statistics, listed as Eplerenone + aldosterone + salt
[15] = individual rats, data used for Table 16 (30 days of treatment), incl. rat marked * excluded from statistics, listed as Eplerenone + aldosterone + salt

| Compound | Cyclooxygenase-2 expression in the heart (immunostaining) [1] | Collagen Volume Fraction (%) [2, 4] [%] | Collagen Volume Fraction (%) [2, 5] [%] | Collagen Volume Fraction (%) [2, 6] | Collagen Volume Fraction (%) [2, 7] | ICVF (%) [2, 8] [%] | ICVF (%) [2, 9] [%] | ICVF (%) [2, 10] [%] | Hydroxyproline [3, 4] [µg/mg] | Hydroxyproline [3, 5] [µg/mg] | Hydroxyproline [3, 6] | Hydroxyproline [3, 7] | Hydroxyproline [3, 11] [µg/mg] | Hydroxyproline [3, 12] [µg/mg] | Hydroxyproline [3, 13] [µg/mg] | Cyclooxygenase-2 expression in the heart (immunostaining) ([1]; listed as eplerenone) | Collagen Volume Fraction (%) [2, 14] | Collagen Volume Fraction (%) [2, 15] | Hydroxyproline [3, 14] | Hydroxyproline [3, 15] |
| --- | --- | --- | --- | --- | --- | --- | --- | --- | --- | --- | --- | --- | --- | --- | --- | --- | --- | --- | --- | --- |
| C[C@]12CCC(=O)C=C1CC[C@@H]1[C@@H]2[C@@H](O)C[C@]2(C=O)[C@@H](C(=O)CO)CC[C@@H]12 [Aldosterone] | restored the presence of cycloxygenase-2 | 5.1 | 7.9 | 4.4% and 5.4% and 3.2% (2×) and 5.9% (2×) and 4.6% (2×) and 3.9% and 4.8% and 3.4% and 6.4% and 9.0% | 6.6% and 8.8% and 7.2% (2×) and 7.1% and 9.3% and 6.8% and 4.0% and 14.5% | 5.6 ± 0.6 | 5.1 ±0.5 | 7.9 ± 1.0 | 4.04 | 4.39 | 2.89 µg/mg and 2.91 µg/mg and 6.28 µg/mg and 5.63 µg/mg and 4.83 µg/mg and 5.64 µg/mg and 5.29 µg/mg and 2.76 µg/mg and 2.68 µg/mg and 2.60 µg/mg and 3.00 µg/mg and 3.99 µg/mg and 2.73 µg/mg | 7.24 µg/mg and 8.01 µg/mg and 3.62 µg/mg and 3.69 µg/mg and 4.00 µg/mg and 3.54 µg/mg and 3.07 µg/mg and 3.25 µg/mg and 3.09 µg/mg | 2.73 | 4.04 | 4.39 |  |  |  |  |  |
| COC(=O)[C@@H]1CC2=CC(=O)CC[C@]2(C)[C@@]23O[C@@H]2C[C@@]2(C)[C@@H](CC[C@@]24CCC(=O)O4)[C@H]13 [Eplerenone] | markedly reduced and in most cases completely prevented | 4.5 | 6.2 |  |  | 5.4 ± 0.6 | 4.5 ± 0.3 | 6.2 ± 0.5 | 4.46 | 4.10 |  |  | 3.06 | 4.46 | 4.10 | prevention | 4.1% and 6.2% and 3.9% and 3.7% (2×) and 4.2% and 3.5% and 3.3% and 5.2% and 5.6% and 6.0% | 3.4% and 5.0% and 6.5% and 7.9% and 7.1% and 6.3% and 6.1% and 5.4% and 7.8% and 4.4% | 2.95 µg/mg and 5.97 µg/mg and 6.52 µg/mg and 5.35 µg/mg and 6.80 µg/mg and 5.32 µg/mg and 2.72 µg/mg and 3.13 µg/mg and 2.41 µg/mg and 2.81 µg/mg and 5.03 µg/mg | 5.18 µg/mg and 6.11 µg/mg and 5.17 µg/mg and 6.40 µg/mg and 2.73 µg/mg and 2.84 µg/mg and 2.97 µg/mg and 2.82 µg/mg and 2.72 µg/mg and 5.75 µg/mg |
